Active and inactive are the calls of the source. The calls are words filed in the database; no cut-off is given here.
Tests used:
[1] = target: Beta-2 adrenergic receptor (Homo sapiens) (UniProt P07550); test: Displacement of [3H]-CGP-12177 from adrenergic beta2 receptor (unknown origin) at 1 uM
[2] = target: Mu-type opioid receptor (Homo sapiens) (UniProt P35372); test: Displacement of [3H]-d iprenorphine from mu opioid receptor (unknown origin) at 1 uM
[3] = target: 5-hydroxytryptamine receptor 3A (Homo sapiens) (UniProt P46098); test: Displacement of [3H]-GR-65630 from 5-HT3 receptor (unknown origin) at 1 uM
[4] = target: B1 bradykinin receptor (Homo sapiens) (UniProt P46663); test: Displacement of [3H]-(Des-Arg10)-Kallidin from bradykinin B1 receptor (unknown origin) at 1 uM
[5] = tested on: Rattus norvegicus; test: Analgesic activity in rat assessed as inhibition of formalin-induced pain by measuring time spent licking injected paw in late phase (10 to 35 min) administered at 10 mg/kg by two-phase analgesic formalin assay; type: functional, organism-based
[6] = target: D(3) dopamine receptor (Homo sapiens) (UniProt P35462); test: Displacement of [3H]-sp iperone from dopamine D3 receptor (unknown origin) at 1 uM
[7] = target: Sigma non-opioid intracellular receptor 1 (Cavia porcellus) (UniProt Q60492); test: Agonist activity at sigma1 receptor assessed as potentiation of electrically stimulated contractions of the guinea pig vas deferens at 30 uM relative to (S)-3-PPP
[8] = target: Substance-P receptor (Homo sapiens) (UniProt P25103); test: Displacement of [3H]-SR-140333 from tachykinin NK1 receptor (unknown origin) at 1 uM
[9] = target: Histamine H1 receptor (Homo sapiens) (UniProt P35367); test: Displacement of [3H]-Pyrilamine from histamine H1 receptor (unknown origin) at 1 uM
[10] = target: C-X-C chemokine receptor type 2 (Homo sapiens) (UniProt P25025); test: Displacement of [125I]-IL-8 from CXCR2 receptor (unknown origin) at 1 uM
[11] = species: Homo sapiens; test: Displacement of [3H]-flunitrazepam from […] GABAA receptor (unknown origin) at 1 uM
[12] = target: Beta-1 adrenergic receptor (Homo sapiens) (UniProt P08588); test: Displacement of [125I]-cyanopindolol from adrenergic beta1 receptor (unknown origin) at 1 uM
[13] = target: Metabotropic glutamate receptor 5 (Homo sapiens) (UniProt P41594); test: Displacement of [3H]-quisqulic acid from metabotropic glutamate receptor 5 (unknown origin) at 1 uM
[14] = species: Homo sapiens; test: Displacement of [35S]-ATP-alpha-S from purinergic P2y receptor (unknown origin) at 1 uM
[15] = target: Alpha-1D adrenergic receptor (Homo sapiens) (UniProt P25100); test: Displacement of [3H]-prazosin from adrenergic alpha1D receptor (unknown origin) at 1 uM
[16] = target: B2 bradykinin receptor (Homo sapiens) (UniProt P30411); test: Displacement of [3H]-bradykinin from bradykinin B2 receptor (unknown origin) at 1 uM
[17] = target: Histamine H2 receptor (Homo sapiens, UniProt P25021); test: Displacement of [125I]-aminopotentidine receptor from histamine H2 receptor (unknown origin)
[18] = tested on: Mus musculus; test: Toxicity in mouse assessed as diarrhea at 30 mg/kg, ip measured for 60 mins by Irwin test; type: organism-based; conditions: in vivo, 1 h
[19] = target: C-C chemokine receptor type 5 (Homo sapiens) (UniProt P51681); test: Displacement of [125I]-MIP-1beta from CCR5 receptor (unknown origin) at 1 uM
[20] = target: Endothelin-1 receptor (Homo sapiens) (UniProt P25101); test: Displacement of [125I]-endothelin-1 from endothelin ETA receptor (unknown origin) at 1 uM
[21] = target: Adenosine receptor A2a (Homo sapiens) (UniProt P29274); test: Displacement of [3H]-CGS21680 from adenosine A2A receptor (unknown origin) at 1 uM
[22] = tested on: Mus musculus; test: Toxicity in mouse assessed as writhing at 100 mg/kg, ip by Irwin test; type: organism-based; conditions: in vivo
[23] = target: Albumin (Homo sapiens, UniProt P02768); test: Binding affinity to human serum albumin at 60 uM; type: ADME; conditions: isolated protein
[24] = target: Neuromedin-B receptor (Homo sapiens) (UniProt P28336); test: Displacement of [125I]-(Tyr4)-bombesin from bombesin BB1 receptor (unknown origin) at 1 uM
[25] = tested on: Mus musculus; test: Toxicity in mouse at 1 mg/kg, ip by Irwin test; type: organism-based; conditions: in vivo
[26] = target: D(2) dopamine receptor (Homo sapiens) (UniProt P14416); test: Displacement of [3H]-sp iperone from dopamine D2 receptor (unknown origin) at 1 uM
[27] = target: Alpha-2A adrenergic receptor (Homo sapiens) (UniProt P08913); test: Displacement of [3H]-MK-912 from adrenergic alpha2A receptor (unknown origin) at 1 uM
[28] = Metabolic stability in mouse microsomes assessed as amount of parent compound remaining after 5 mins; type: ADME, Microsome; conditions: read-out: Stability
[29] = target: Alpha-1A adrenergic receptor (Homo sapiens) (UniProt P35348); test: Displacement of [3H]-prazosin from adrenergic alpha1A receptor (unknown origin) at 1 uM
[30] = Metabolic stability in human microsomes assessed as amount of parent compound remaining after 5 mins; type: ADME, Microsome; conditions: read-out: Stability
[31] = target: Glucocorticoid receptor (Homo sapiens) (UniProt P04150); test: Displacement of [3H]-dexamethasone from glucocorticoid receptor (unknown origin) at 1 uM
[32] = target: Alpha-1B adrenergic receptor (Homo sapiens) (UniProt P35368); test: Displacement of [3H]-prazosin from adrenergic alpha1B receptor (unknown origin) at 1 uM
[33] = target: Estrogen receptor (Homo sapiens) (UniProt P03372); test: Displacement of [3H]-estradiol from estrogen ERalpha receptor (unknown origin) at 1 uM
[34] = target: Platelet-activating factor receptor (Homo sapiens) (UniProt P25105); test: Displacement of [3H]-PAF from platelet activating factor receptor (unknown origin) at 1 uM
[35] = species: Homo sapiens; test: Displacement of [3H]-sp iperone from dopamine D4.2 receptor (unknown origin) at 1 uM
[36] = target: Neuropeptide Y receptor type 1 (Homo sapiens) (UniProt P25929); test: Displacement of [125I]-Peptide YY from neuropeptide Y Y1 receptor (unknown origin) at 1 uM
[37] = Displacement of [3H]-(+)-MK 801 from PCP binding site of NMDA receptor in pig brain cortex membranes after 120 mins by liquid scintillation spectrometry; type: cell membranes, Sus scrofa
[38] = target: Muscarinic acetylcholine receptor M1 (Homo sapiens) (UniProt P11229); test: Displacement of [3H]-N-methylscopolamine from muscarinic M1 receptor (unknown origin) at 1 uM
[39] = target: CYP3A4 (Homo sapiens, UniProt P08684); test: Inhibition on CYP3A4 (unknown origin) at 1 uM; type: ADME
[40] = target: Adenosine receptor A1 (Homo sapiens) (UniProt P30542); test: Displacement of [3H]-DPCPX from adenosine A1 receptor (unknown origin) at 1 uM
[41] = target: Adenosine receptor A3 (Homo sapiens) (UniProt P0DMS8); test: Displacement of [125I]-AB-MECA from adenosine A3 receptor (unknown origin) at 1 uM

Alpha-1A adrenergic receptor (Homo sapiens), sequence (P35348 whole entry): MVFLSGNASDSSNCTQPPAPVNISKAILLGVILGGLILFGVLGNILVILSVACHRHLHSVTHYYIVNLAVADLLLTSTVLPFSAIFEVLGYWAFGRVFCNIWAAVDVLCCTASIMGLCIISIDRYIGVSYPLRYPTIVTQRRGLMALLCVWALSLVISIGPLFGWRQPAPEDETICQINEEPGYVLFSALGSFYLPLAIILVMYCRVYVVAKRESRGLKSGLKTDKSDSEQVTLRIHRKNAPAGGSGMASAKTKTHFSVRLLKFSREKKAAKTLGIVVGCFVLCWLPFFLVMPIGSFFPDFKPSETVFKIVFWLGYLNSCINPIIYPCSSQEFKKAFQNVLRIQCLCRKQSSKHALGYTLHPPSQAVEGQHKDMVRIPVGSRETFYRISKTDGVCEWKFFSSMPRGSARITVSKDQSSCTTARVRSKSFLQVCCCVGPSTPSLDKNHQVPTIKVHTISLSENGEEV
Substance-P receptor (Homo sapiens), sequence (P25103 whole entry): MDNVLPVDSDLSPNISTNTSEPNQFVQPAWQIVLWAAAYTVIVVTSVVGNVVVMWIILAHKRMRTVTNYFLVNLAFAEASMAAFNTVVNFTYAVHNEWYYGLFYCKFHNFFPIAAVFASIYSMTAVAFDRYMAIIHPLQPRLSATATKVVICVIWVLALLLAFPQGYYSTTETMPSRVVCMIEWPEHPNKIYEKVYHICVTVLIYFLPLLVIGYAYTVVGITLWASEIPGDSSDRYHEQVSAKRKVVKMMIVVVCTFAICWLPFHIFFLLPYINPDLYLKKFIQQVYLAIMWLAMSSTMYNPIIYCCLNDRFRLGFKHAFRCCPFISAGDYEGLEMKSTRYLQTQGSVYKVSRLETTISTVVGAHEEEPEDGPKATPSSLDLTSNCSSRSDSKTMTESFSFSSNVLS
Neuromedin-B receptor (Homo sapiens), sequence (P28336 whole entry, looked up): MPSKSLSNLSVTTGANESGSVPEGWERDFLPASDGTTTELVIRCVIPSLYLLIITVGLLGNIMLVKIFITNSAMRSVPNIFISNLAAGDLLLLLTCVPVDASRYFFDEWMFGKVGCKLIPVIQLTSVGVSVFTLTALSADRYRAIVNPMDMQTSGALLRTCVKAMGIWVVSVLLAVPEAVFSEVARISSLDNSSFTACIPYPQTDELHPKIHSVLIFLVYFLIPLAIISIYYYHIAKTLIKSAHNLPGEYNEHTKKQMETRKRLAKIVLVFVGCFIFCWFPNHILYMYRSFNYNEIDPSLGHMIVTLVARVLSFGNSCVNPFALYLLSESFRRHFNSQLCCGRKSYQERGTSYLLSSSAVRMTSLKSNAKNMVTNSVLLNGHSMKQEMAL
Sigma non-opioid intracellular receptor 1 (Cavia porcellus), sequence (Q60492 whole entry): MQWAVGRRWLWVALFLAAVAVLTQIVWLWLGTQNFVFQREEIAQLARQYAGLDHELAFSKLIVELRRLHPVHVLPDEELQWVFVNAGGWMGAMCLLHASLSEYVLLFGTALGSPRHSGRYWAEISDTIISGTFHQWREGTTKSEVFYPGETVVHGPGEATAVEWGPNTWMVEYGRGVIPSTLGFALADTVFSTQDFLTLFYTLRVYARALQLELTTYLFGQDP
D(3) dopamine receptor (Homo sapiens), sequence (P35462 whole entry): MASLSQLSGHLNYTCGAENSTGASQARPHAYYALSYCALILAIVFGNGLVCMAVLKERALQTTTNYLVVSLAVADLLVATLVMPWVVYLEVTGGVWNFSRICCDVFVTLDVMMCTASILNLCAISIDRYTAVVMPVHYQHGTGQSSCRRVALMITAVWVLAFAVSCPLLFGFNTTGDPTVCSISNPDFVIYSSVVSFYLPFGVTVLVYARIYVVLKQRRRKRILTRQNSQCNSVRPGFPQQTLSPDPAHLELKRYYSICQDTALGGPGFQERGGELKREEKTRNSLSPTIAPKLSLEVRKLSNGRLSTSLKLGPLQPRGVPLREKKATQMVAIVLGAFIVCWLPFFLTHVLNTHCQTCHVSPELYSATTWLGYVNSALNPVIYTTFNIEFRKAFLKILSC
Platelet-activating factor receptor (Homo sapiens), sequence (P25105 whole entry): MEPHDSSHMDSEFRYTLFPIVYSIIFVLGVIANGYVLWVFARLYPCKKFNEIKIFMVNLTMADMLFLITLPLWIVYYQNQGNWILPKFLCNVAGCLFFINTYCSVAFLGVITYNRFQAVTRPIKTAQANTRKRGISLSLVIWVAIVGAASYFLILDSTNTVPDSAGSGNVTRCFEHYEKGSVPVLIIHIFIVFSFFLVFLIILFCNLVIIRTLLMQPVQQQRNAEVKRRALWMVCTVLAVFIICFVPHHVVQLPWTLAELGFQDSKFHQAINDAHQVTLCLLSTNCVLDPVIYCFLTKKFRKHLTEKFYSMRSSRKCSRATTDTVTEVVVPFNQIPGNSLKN
Albumin, sequence (P02768 whole entry): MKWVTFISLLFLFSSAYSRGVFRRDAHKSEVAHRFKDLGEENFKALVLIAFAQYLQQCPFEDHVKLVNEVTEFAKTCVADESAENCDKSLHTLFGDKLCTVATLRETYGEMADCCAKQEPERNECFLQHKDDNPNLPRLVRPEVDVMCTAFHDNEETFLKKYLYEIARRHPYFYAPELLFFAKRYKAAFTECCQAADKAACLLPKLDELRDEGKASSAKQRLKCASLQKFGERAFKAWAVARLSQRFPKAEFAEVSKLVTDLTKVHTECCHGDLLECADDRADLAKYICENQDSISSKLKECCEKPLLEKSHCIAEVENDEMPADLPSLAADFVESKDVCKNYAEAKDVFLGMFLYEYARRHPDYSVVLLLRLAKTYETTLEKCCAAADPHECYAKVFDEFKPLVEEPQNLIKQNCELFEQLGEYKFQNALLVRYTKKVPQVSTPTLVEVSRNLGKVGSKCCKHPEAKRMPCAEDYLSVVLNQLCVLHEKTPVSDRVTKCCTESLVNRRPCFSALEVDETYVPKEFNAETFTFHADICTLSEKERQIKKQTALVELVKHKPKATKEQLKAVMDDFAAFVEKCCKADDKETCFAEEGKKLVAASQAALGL
Histamine H2 receptor, sequence (P25021 whole entry): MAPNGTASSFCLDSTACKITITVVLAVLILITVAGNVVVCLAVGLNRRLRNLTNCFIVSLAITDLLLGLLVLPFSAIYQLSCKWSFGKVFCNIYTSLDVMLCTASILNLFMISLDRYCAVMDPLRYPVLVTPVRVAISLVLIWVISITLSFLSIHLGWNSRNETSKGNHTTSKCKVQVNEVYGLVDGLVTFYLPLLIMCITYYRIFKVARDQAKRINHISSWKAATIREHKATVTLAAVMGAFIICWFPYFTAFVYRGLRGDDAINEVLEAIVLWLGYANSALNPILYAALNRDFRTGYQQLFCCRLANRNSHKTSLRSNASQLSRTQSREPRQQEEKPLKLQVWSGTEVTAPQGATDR
Beta-1 adrenergic receptor (Homo sapiens), sequence (P08588 whole entry, looked up): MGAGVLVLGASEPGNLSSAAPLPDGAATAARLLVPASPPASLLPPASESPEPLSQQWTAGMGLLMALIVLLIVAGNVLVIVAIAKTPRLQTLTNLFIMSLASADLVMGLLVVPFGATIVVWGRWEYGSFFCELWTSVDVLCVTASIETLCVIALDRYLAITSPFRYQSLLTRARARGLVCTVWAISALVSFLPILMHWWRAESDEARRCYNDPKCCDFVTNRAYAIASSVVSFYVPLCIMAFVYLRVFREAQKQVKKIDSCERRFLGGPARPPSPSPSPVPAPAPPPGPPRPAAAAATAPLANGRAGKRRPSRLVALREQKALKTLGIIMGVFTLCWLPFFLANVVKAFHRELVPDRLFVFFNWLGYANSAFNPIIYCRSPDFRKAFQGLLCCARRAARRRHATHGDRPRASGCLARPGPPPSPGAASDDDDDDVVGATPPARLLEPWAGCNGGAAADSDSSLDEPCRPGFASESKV
Mu-type opioid receptor (Homo sapiens), sequence (P35372 whole entry): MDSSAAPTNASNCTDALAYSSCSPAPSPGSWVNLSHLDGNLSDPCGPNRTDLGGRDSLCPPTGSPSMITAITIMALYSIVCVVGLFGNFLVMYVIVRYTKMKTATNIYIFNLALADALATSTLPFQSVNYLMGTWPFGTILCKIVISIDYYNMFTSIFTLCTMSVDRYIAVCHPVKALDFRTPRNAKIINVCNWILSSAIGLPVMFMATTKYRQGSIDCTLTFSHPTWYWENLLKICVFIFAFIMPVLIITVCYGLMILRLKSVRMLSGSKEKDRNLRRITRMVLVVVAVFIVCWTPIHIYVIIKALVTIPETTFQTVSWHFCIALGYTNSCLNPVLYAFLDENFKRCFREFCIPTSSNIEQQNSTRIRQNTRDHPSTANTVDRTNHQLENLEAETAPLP
Alpha-1D adrenergic receptor (Homo sapiens), sequence (P25100 whole entry): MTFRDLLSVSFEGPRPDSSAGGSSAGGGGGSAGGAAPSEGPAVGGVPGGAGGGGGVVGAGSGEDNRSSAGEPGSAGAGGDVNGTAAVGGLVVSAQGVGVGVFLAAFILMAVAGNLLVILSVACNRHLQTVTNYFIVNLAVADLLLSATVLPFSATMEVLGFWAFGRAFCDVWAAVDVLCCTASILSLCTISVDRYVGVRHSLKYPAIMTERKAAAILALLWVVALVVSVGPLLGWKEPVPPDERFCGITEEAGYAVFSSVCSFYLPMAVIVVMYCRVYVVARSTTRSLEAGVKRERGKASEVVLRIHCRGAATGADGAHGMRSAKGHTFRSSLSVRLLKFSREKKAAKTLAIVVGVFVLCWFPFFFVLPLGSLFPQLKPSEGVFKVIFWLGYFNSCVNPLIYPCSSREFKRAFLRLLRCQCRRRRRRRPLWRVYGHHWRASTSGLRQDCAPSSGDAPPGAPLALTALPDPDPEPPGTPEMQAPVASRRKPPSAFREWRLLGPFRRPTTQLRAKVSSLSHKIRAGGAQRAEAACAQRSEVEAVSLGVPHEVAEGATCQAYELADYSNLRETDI

inhibition [1]: inactive
inhibition [2]: inactive
inhibition [3]: inactive
inhibition [4]: inactive
inhibition [6]: inactive
Activity [7]: 29%
inhibition [8]: inactive
inhibition [9]: inactive
inhibition [10]: inactive
inhibition [11]: inactive
inhibition [12]: inactive
inhibition [13]: inactive
inhibition [14]: inactive
inhibition [15]: inactive
inhibition [16]: inactive
IC50 [17]: 1000 nM
inhibition [19]: inactive
inhibition [20]: inactive
inhibition [21]: inactive
PB [23]: 1.6%
inhibition [24]: inactive
inhibition [26]: inactive
inhibition [27]: inactive
remaining at 5 min [28]: < 50%
inhibition [29]: inactive
remaining at 5 min [30]: < 50%
inhibition [31]: inactive
inhibition [32]: inactive
inhibition [33]: inactive
inhibition [34]: inactive
inhibition [35]: inactive
inhibition [36]: inactive
IC50 [37]: > 1000 nM
inhibition [38]: inactive
inhibition at 1 µM [39]: 7%
inhibition [40]: inactive
inhibition [41]: inactive
Compound: COc1ccc(CN2CCCN(Cc3ccccc3)[C@@H](C)C2)cc1
Activity [5]: Active
Activity [18]: Toxic
Activity [22]: Toxic
Activity [25]: Non-Toxic

Reference: ChEMBL document CHEMBL4043136, “Chiral-pool synthesis of 1,2,4-trisubstituted 1,4-diazepanes as novel σ1 receptor ligands” (Bioorg Med Chem, 2017)
